Reference: US20230331679A1, “NAPHTHALENE MONOIMIDE COMPOUNDS AND METHODS THEREOF” (JAWAHARLAL NEHRU CENTRE FOR ADVANCED SCIENTIFIC RESEARCH, priority 2020, published 2023)

Columns and labels:
[1] = MALDI mass analysis of blood serum after administration; format: in vivo; conditions: WT mice, 24 h after administration
Procedure: (§1) Pharmacokinetics of TGR63 in wild-type (WT) mice was performed to assess its in vivo efficacy. The lethal dose 50 (LD50) of TGR63 was determined in WT mice through intraperitoneal (IP) injection following the Organisation for Economic Cooperation and Development (OECD) guidelines. […] FIG. 7A illustrates the calculation of lethal dose 50% (LD50) of TGR63 through intraperitoneal administration and is represented as table of experimental details and the final observation was done on 14th day. FIG. 7B illustrates the mortality (%) plotted against TGR63 concentration and calculation of LD50. Twenty-five WT mice were segregated in five different groups (G1-5, N= 5 per group) and administered with varying doses of TGR63 (1.7, 5.5, 17.5 56.0 and 179.0 mg/kg body weight, respectively) through IP injection and their survival was monitored for 14 days. The serum stability and blood-brain barrier (BBB) crossing ability of TGR63 were assessed through matrix-assisted laser desorption ionization (MALDI) mass spectrometry analysis of blood and brain samples of vehicle and TGR63 treated mice. […] The partition coefficient (P), a valuable physical property was calculated to predict the BBB permeability. […] The calculated positive logP value predicts the possible BBB crossing ability for TGR63. […]

[2] = MALDI mass analysis of brain lysate (BBB crossing); format: in vivo; conditions: WT mice, brains collected after 1 h
Procedure: as §1

[3] = tested on: PC12 cells; experiment: Rescue of PC12 cells from Aβ42 toxicity (MTT cell viability assay); conditions: PC12 cells, Aβ42 20 µM + compound 40 µM, 24 h; Aβ42 alone 54%, untreated 100%
Procedure: A 96-well plate was used to culture the cells (15,000 per well) with RPMI media (10% fetal bovine serum (FBS), 5% horse serum (HS,), and 1% pen-strep (PS)) at 37° C. temperature in a 5% CO2 atmosphere. Then the media was exchanged with low serum (2% FBS) media and monomeric Aβ42 was added in the absence and presence of NMI compounds and incubated for 24 h.
The structure-activity relationship (SAR) of NMI compounds towards rescuing PC12 cells from Aβ toxicity was investigated. […] Each experiment was repeated three times (n = 3), and error bars represent the standard deviation (SD).
An Alzheimer’s disease-like environment was mimicked by exposing the cultured PC12 cells to 20 µM of Aβ42 fibrils, which formed cytotoxic aggregation species in the growth media.

[4] = tested on: APP/PS1 mice; experiment: Open field (OF) test; format: in vivo; conditions: AD TGR63 cohort
Procedure: In OF test, all the experimental mice were individually allowed to explore a novel platform (45 X 45 cm) and their locomotion activity was monitored for 5 min (Sony HDRCX405 camera) and analyzed using the smart 3 software (Panlab; FIG. 16A). […] The anxiety behaviors of TGR63 treated mice were assessed by the time spent and the entries in the center zone (20 X 20 cm) of OF arena. […] Next, the effect of TGR63 on memory processing, viz., acquisition, consolidation and retrieval were evaluated through NOI test, which has been widely used as a tool to study the neurobiology of memory using the natural tendency of rodents to explore novel objects more than the familiar objects. All the experimental mice were familiarized with two identical objects (familiar objects) in a known habituated arena and allowed to explore a novel and familiar object after 24 and 48 h of familiarization (FIG. 16E). The exploration time with each object was measured using a stopwatch, and the discrimination index (DI) was determined using the formula, (time exploring the novel object - time exploring the familiar) / (time exploring novel + familiar) * 100. […] Similarly, the calculated DI after 48 h was lowest (-7) for AD vehicle cohort compared to both vehicle and TGR63 treated WT cohorts (+43 and +45, respectively) (FIG. 16G). […] The blocking of essential synaptic receptors (NMDA and AMPA) by Aβ aggregation species leading to synaptic dysfunction followed by impairment in hippocampal LTP formation. […] TGR63 treatment ameliorates the memory impairment in APP/PS 1 mice by reducing the toxic amyloid burden from the brain under progressive AD conditions.

[5] = tested on: APP/PS1 and WT mice; experiment: Morris water maze (MWM) test; format: in vivo
Procedure: The spatial and episodic memory formation under AD conditions were investigated through spatial learning and memory development tasks in MWM test. MWM test was performed in a water pool (radius: 70 cm) and experimental mice were trained four times in a day to find a hidden platform, which was removed in probe trial to assess the spatial memory. The latency time to reach the hidden platform during the training period was recorded to determine spatial learning (FIG. 16H). […] In the probe trial, AD vehicle cohort spent most of the time (~87% of total time) in other quadrants (without platform), while other cohorts (WT vehicle, WT TGR63 and AD TGR63) spent only ~67%, 58% and 66% of total time in without platform quadrants, respectively. The AD vehicle cohort spent minimum time (~13% of total time) in target quadrant (with platform) compared to WT vehicle cohort (~33% of total time). […] Remarkably, AD TGR63 cohort crossed the platform region ~4 times, which is greater than the AD vehicle cohort.

## CN(C)c1ccc(C#Cc2ccc3c4c(cccc24)C(=O)N(CC[N+](C)(C)C)C3=O)cc1 [TGR63, 2-(6-((4-(dimethylamino)phenyl)ethynyl)-1,3-dioxo-1H-benzo[de]isoquinolin-2(3H)-yl)-N,N,N-trimethylethan-1-aminium]
[1]
  presence in blood (MALDI): confirmed the presence of TGR63 in blood after 24 h of administration
[2]
  BBB crossing ability (MALDI of brain lysate): confirmed BBB crossing ability of TGR63
[3]
  cell viability: 80%
[4]; 5 min, AD vehicle 2698.25 cm, WT vehicle 1533.88 cm
  total distance traveled (average): 1515.33 cm
[4]; AD vehicle 243.0 cm
  distance traveled in the center zone (average): 98.14 cm
[4]; AD vehicle ~20
  number of entries into the center zone: ~ 9 entries
[5]; AD TGR63 cohort, probe trial
  exploration in target quadrant relative to AD vehicle cohort: < 20%
[5]; AD TGR63 cohort, training days
  spatial memory formation (latency to hidden platform during training): significant improvement in spatial memory formation compared to AD vehicle cohort
[5]; AD TGR63 cohort, AD vehicle ~1 time, WT vehicle ~4 times
  platform region crossings, probe trial: ~ 4 times
[5]; AD TGR63 cohort, AD vehicle ~13%
  exploration in target quadrant, probe trial: ~ 34 % of total time
[5]; AD TGR63 cohort, AD vehicle ~87%
  time in without platform quadrants, probe trial: ~66 % of total time
[5]; WT TGR63 cohort, WT vehicle ~33%
  exploration in target quadrant, probe trial: < 35 % of total time
[5]; WT TGR63 cohort, WT vehicle ~67%
  time in without platform quadrants, probe trial: ~58 % of total time
